Structures can show the parent of a compound that is named as a salt.
Target: T1, human holo-transferrin (hTf) (Homo sapiens, UniProt P02787)
T1 construct: gene TF; commercial holo (iron-loaded) glycoprotein, Sigma-Aldrich; mature full length, 679 residues, ~79 kDa, N-lobe and C-lobe, no tag stated
Assay: intrinsic fluorescence quenching titration
Assay type: binding
Conditions: double-log, excitation 280 nm, 50 mM potassium phosphate pH 7.4, 298 K
From the text: intrinsic fluorescence quenching titration on human holo-transferrin (hTf)

T1 sequence (P02787 20-698): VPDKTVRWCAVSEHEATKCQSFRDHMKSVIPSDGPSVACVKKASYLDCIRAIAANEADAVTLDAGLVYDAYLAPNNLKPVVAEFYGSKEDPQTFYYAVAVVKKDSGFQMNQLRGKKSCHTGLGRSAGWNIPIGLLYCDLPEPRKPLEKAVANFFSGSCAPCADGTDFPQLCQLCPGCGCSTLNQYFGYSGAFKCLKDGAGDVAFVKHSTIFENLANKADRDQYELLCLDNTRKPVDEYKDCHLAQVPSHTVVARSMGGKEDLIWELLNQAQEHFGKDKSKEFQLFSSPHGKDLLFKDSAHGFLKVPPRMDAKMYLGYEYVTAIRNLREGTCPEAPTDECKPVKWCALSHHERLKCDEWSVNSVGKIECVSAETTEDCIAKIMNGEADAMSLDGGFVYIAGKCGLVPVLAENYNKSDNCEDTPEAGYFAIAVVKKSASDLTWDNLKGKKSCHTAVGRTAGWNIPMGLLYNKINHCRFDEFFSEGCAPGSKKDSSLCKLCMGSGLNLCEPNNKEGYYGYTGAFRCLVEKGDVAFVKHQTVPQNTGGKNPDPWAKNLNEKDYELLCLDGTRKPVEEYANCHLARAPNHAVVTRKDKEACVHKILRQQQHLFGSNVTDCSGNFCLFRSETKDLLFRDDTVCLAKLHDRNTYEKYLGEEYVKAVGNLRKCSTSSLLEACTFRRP

Compound	K b ( L mol^-1) / λ ex = 280 nM (one site, binary system without ropinirole)	K b ( L mol^-1) / λ ex = 280 nM (stronger of two sites, binary system without aspirin)
CC(=O)Oc1ccccc1C(=O)O [aspirin, 2-acetoxy benzoic acid]	(7.83 ± 0.02) × 10^3 L mol^-1	–
CCCN(CCC)CCc1cccc2c1CC(=O)N2 [ropinirole hydrochloride, 4-[2-(dipropylamino)ethyl]-1,3-dihydro-2H-indol-2-one monohydro-chloride]	–	(1.69 ± 0.03) × 10^6 L mol^-1

From paper PMC6268275, “Use of Spectroscopic, Zeta Potential and Molecular Dynamic Techniques to Study the Interaction between Human Holo-Transferrin and Two Antagonist Drugs: Comparison of Binary and Ternary Systems” (Molecules, 2012)
